System: 966289-007-R4-J1-PDC complex spheroid viability
Assay: Anticancer human tumor 966289-007-R4-J1-PDC patient-derived pancreatic adenocarcinoma cell line growth inhibition [GQUAD]
Details: for IC50: curve of first compound; for viability, T/C: stronger effect = lower value
From the text: DNA G-quadruplex Stabilizer Agents in Combinations in Complex Spheroids
A high-throughput screen of multi-cell type tumor spheroids was designed to identify active combinations of DNA G-quadruplex stabilizer agents and targeted small molecules. Complex spheroids include a stromal component modeled by human endothelial cells (HUVEC) and fibroblasts modeled by human mesenchymal stem cells (MSCs). The concentration ranges selected for each drug and investigational agent were based upon clinically achievable concentrations if the clinical Cmax of the agent was known.
Compounds. The drugs and investigational agents: pidnarulex (CX-5461; NSC782164), APTO-253 (NSC789042), BRACO-19 (NSC847499), peposertib (NSC802822), ceralasertib (NSC780249), elimusertib (NSC800525), camonsertib (NSC841442), AZD-1390 (NSC803789), olaparib (NSC753686), talazoparib (NSC767125), ART-558 (NSC835418), sotorasib (NSC818433), MRTX-1133 (NSC836407), SN-38 (NSC673596), topotecan (NSC609699), etoposide (NSC141540), doxorubicin (NSC123127), gemcitabine (NSC613327), 5-fluorouracil (NSC19893), paclitaxel (NSC125973), vemurafenib (NSC761431), panobinostat (NSC761190), R-306465 (JNJ-16241199; NSC773264), adavosertib (NSC754352), TP-3654 (NSC805149), carboplatin (NSC241240), KSQ-4279 (NSC840948), and staurosporine (NSC755774) were obtained from the National Cancer Institute (NCI) Developmental Therapeutics Program Chemical Repository (34). The FDA-approved anticancer drug set is available from the NCI Developmental Therapeutics Program. […] The stock solutions were prepared in dimethyl sulfoxide (DMSO, Sigma-Aldrich, St. Louis, MO, cat. D2650) at 800-fold the tested concentration and stored at -70 degrees C prior to their use. All drugs and investigational agents were tested over a range starting from a high concentration at or near the clinical Cmax and decreasing in half-log increments. If the clinical Cmax for an agent had not been determined, the highest concentration tested was 10 microM.
2.3 Cell Culture. All cells were maintained in an incubator at 37 degrees C and 5% CO2 with 95% humidity. The PDC lines were cultured according to standard operating procedures established by the NCI PDMR. All PDCs were thawed and cultured in Matrigel-coated flasks prepared with a working solution of 1X Ham's F-12 nutrient mix, without supplementation (Invitrogen, cat. 11765054), 100 U/mL penicillin-streptomycin (Invitrogen, cat. 15140122), and 2.5% Matrigel (Corning Inc., cat. 354248) for the first three passages. The 857933-349-R-J2-PDC line was cultured in 6C/Colon 1B media, which includes advanced DMEM/F-12 (Thermo Fisher Scientific, cat. 12634028), 10 mM HEPES (Thermo Fisher Scientific, cat. 15630080), 1X GlutaMAX supplement (Thermo Fisher Scientific, cat. 35050061), 0.1 mg/mL primocin (InvivoGen, cat. ant-pm-2), 10% defined fetal bovine serum, heat inactivated (HyClone Laboratories Inc., cat. SH30070.03HI), 50% L-WRN conditioned media (ATCC, cat. CRL-3276), 1.25 mM N-Acetyl-L-cysteine (Sigma-Aldrich, cat. A9165), 10 mM nicotinamide (Sigma-Aldrich, cat. N0636), 1X B-27 supplement (Thermo Fisher Scientific, cat. 17504044), 1X N-2 supplement (Thermo Fisher Scientific, cat. 17502048), 10 microM Y-27632 dihydrochloride (Tocris Bioscience, cat. 1254), and 50 ng/mL human EGF recombinant protein (Thermo Fisher Scientific, cat. PHG0311). The 485176-168-R4-J1-PDC line was cultured in Panc media, which includes all 6C/Colon 1B media components plus 100 ng/mL human FGF-10 (Thermo Fisher Scientific, cat. 100-26), 500 nM SB-431542 (Selleckchem, cat. S1067), and gastrin (Tocris, cat. 3006).
[…]
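Also: spheroids exposed to the agents for seven days before readout.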
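For viability, T/C in this document: percent viability relative to DMSO vehicle control wells taken as 100%.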

Q: What does the source list for `C#Cc1c(F)ccc2cc(O)cc(-c3ncc4c(N5CC6CCC(C5)N6)nc(OCC56CCCN5CC(F)C6)nc4c3F)c12` (configuration not stated) + Cc1cnc(CNC(=O)c2c(=O)c3ccc(N4CCCN(C)CC4)nc3n3c2sc2ccccc23)cn1?
A: IC50 (second compound 0.0316 µM): > 10000 nM; IC50 (second compound 0.1 µM): < 31.6 nM; IC50 (second compound 0.316 µM): < 31.6 nM; IC50 (second compound 1 µM): < 31.6 nM; IC50 (second compound 3.16 µM): < 31.6 nM; IC50 (second compound 10 µM): < 31.6 nM; viability, T/C (second compound 0.0316 µM, first compound 0.0316 µM): 114%; viability, T/C (second compound 0.0316 µM, first compound 0.1 µM): 114%; viability, T/C (second compound 0.0316 µM, first compound 0.316 µM): 111%; viability, T/C (second compound 0.0316 µM, first compound 1 µM): 116%; viability, T/C (second compound 0.0316 µM, first compound 3.16 µM): 122%; viability, T/C (second compound 0.0316 µM, first compound 10 µM): 114%; viability, T/C (second compound 0.1 µM, first compound 0.0316 µM): 38.4%; viability, T/C (second compound 0.1 µM, first compound 0.1 µM): 31.4%; viability, T/C (second compound 0.1 µM, first compound 0.316 µM): 34.2%; viability, T/C (second compound 0.1 µM, first compound 1 µM): 31.9%; viability, T/C (second compound 0.1 µM, first compound 3.16 µM): 40.5%; viability, T/C (second compound 0.1 µM, first compound 10 µM): 33.9%; viability, T/C (second compound 0.316 µM, first compound 0.0316 µM): 10.9%; viability, T/C (second compound 0.316 µM, first compound 0.1 µM): 11.8%; viability, T/C (second compound 0.316 µM, first compound 0.316 µM): 13.7%; viability, T/C (second compound 0.316 µM, first compound 1 µM): 12.7%; viability, T/C (second compound 0.316 µM, first compound 3.16 µM): 11%; viability, T/C (second compound 0.316 µM, first compound 10 µM): 7.05%; viability, T/C (second compound 1 µM, first compound 0.0316 µM): 6%; viability, T/C (second compound 1 µM, first compound 0.1 µM): 4.8%; viability, T/C (second compound 1 µM, first compound 0.316 µM): 5.85%; viability, T/C (second compound 1 µM, first compound 1 µM): 6.1%; viability, T/C (second compound 1 µM, first compound 3.16 µM): 6.94%; viability, T/C (second compound 1 µM, first compound 10 µM): 2.87%; viability, T/C (second compound 3.16 µM, first compound 0.0316 µM): 4.4%; viability, T/C (second compound 3.16 µM, first compound 0.1 µM): 5.02%; viability, T/C (second compound 3.16 µM, first compound 0.316 µM): 5.21%; viability, T/C (second compound 3.16 µM, first compound 1 µM): 4.53%; viability, T/C (second compound 3.16 µM, first compound 3.16 µM): 4.58%; viability, T/C (second compound 3.16 µM, first compound 10 µM): 0.22%; viability, T/C (second compound 10 µM, first compound 0.0316 µM): 0.1%; viability, T/C (second compound 10 µM, first compound 0.1 µM): 0.14%; viability, T/C (second compound 10 µM, first compound 0.316 µM): 0.14%; viability, T/C (second compound 10 µM, first compound 1 µM): 0.28%; viability, T/C (second compound 10 µM, first compound 3.16 µM): 0.16%; viability, T/C (second compound 10 µM, first compound 10 µM): 0.11%
